The values below come from patent US20240050428A1 (Cullgen (Shanghai), Inc., priority 2020, published 2024).

The subject of one experiment is MV4;11 cells. Nature of the experiment: Cell viability assay (CellTiter-Glo) in MV4;11 cells, alone or with gilteritinib. In kind it is cell-based. Conditions: Homo sapiens, MV4-11, 72 h, MV4;11 cells, three days, CellTiter-Glo, read-out: MV4.
A further experiment has as its system MOLM-13 cells. In words: Cell viability assay (CellTiter-Glo) in MOLM-13 cells, alone or with gilteritinib. In kind it is cell-based. Conditions: Homo sapiens, MOLM-13, 72 h, MOLM-13 cells, three days, CellTiter-Glo. A general note: ATP-based viability assays read luminescence as a measure of living cells.
Setting [1] is: compound alone (without gilteritinib), 11 IC50.
[2] abbreviates: with gilteritinib 10 nM, 11 IC50 gilteritinib.
Where [3] appears, read: compound alone (without gilteritinib), read-out: MOLM-13 IC50.
Setting [4] is: with gilteritinib 20 nM, read-out: MOLM-13 IC50 gilteritinib.

Read-outs that look alike come from different tables or passages of the source.

Turning to `O=C1CCC(N2C(=O)c3ccc(NC(=O)COCCC(=O)N4CCC(n5cc(-c6cnc7ccccc7n6)cn5)CC4)cc3C2=O)C(=O)N1` (stereo not shown) [GS-330, N-(2-(2,6-Dioxopiperidin-3-yl)-1,3-dioxoisoindolin-5-yl)-2-(3-oxo-3-(4-(4-(quinoxalin-2-yl)-1H-pyrazol-1-yl)piperidin-1-yl)propoxy)acetamide], the IC50 with MV4;11 cells (setting [1]), in the experiment on MV4;11 cells (setting [2]), in the experiment on MOLM-13 cells (setting [3]) and with MOLM-13 cells (setting [4]) was above 1 µM in each case.

On to `O=C1CCC(N2C(=O)c3ccc(NCCCCCCN4CCC(O)CC4)cc3C2=O)C(=O)N1` (stereo not shown) [GS-331, 2-(2,6-Dioxopiperidin-3-yl)-5-((6-(4-hydroxypiperidin-1-yl)hexyl)amino)isoindoline-1,3-dione], for which the IC50 is above 1 µM with MV4;11 cells (setting [1]), above 1 µM in the experiment with MV4;11 cells (setting [2]), above 1 µM with MOLM-13 cells (setting [3]) and 0.1 to 1 µM with MOLM-13 cells (setting [4]).

As for `O=C(CN1CCC(N2CCN(c3ccccn3)CC2)C1)NCc1ccc2c(c1)C(=O)N(C1CCC(=O)NC1=O)C2=O` (stereo not shown) [GS-332, N-((2-(2,6-Dioxopiperidin-3-yl)-1,3-dioxoisoindolin-5-yl)methyl)-2-(3-(4-(pyridin-2-yl)piperazin-1-yl)pyrrolidin-1-yl)acetamide], the IC50 in the experiment with MV4;11 cells (setting [1]), with MV4;11 cells (setting [2]), in the experiment with MOLM-13 cells (setting [3]) and with MOLM-13 cells (setting [4]) was above 1 µM throughout.

With `O=C1CCC(N2C(=O)c3ccc(NCCCCCC(=O)N4CCC(O)(c5ccccc5)CC4)cc3C2=O)C(=O)N1` (stereo not shown) [GS-333, 2-(2,6-Dioxopiperidin-3-yl)-5-((6-(4-hydroxy-4-phenylpiperidin-1-yl)-6-oxohexyl)amino)isoindoline-1,3-dione], the IC50 in the experiment on MV4;11 cells (setting [1]) is above 1 µM; in the experiment on MV4;11 cells (setting [2]), 0.1 to 1 µM; with MOLM-13 cells (setting [3]), above 1 µM; with MOLM-13 cells (setting [4]) it was 0.1 to 1 µM.

Regarding `O=C1CCC(N2C(=O)c3ccc(NCCCCCC(=O)N4CC(Oc5ccccc5)C4)cc3C2=O)C(=O)N1` (stereo not shown) [GS-334, 2-(2,6-Dioxopiperidin-3-yl)-5-((6-oxo-6-(3-phenoxyazetidin-1-yl)hexyl)amino)isoindoline-1,3-dione], the IC50 with MV4;11 cells (setting [1]) was above 1 µM; with MV4;11 cells (setting [2]), above 1 µM; in the experiment with MOLM-13 cells (setting [3]) it was above 1 µM; in the experiment on MOLM-13 cells (setting [4]) it was 0.1 to 1 µM.

As for `O=C1CCC(N2C(=O)c3ccc(NCCCCCCN4CCC(C5CCC(O)CC5)CC4)cc3C2=O)C(=O)N1` (stereo not shown) [GS-335, 2-(2,6-Dioxopiperidin-3-yl)-5-((6-(4-(4-hydroxycyclohexyl)piperidin-1-yl)hexyl)amino)isoindoline-1,3-dione], the IC50 in the experiment on MV4;11 cells (setting [1]) was above 1 µM; with MV4;11 cells (setting [2]) it was above 1 µM; in the experiment on MOLM-13 cells (setting [3]) it was above 1 µM; in the experiment with MOLM-13 cells (setting [4]) it was 0.1 to 1 µM.

As for `O=C1CCC(N2C(=O)c3ccc(NCCCCCC(=O)N4CC(Nc5ccccc5)C4)cc3C2=O)C(=O)N1` (stereo not shown) [GS-336, 2-(2,6-Dioxopiperidin-3-yl)-5-((6-oxo-6-(3-(phenylamino)azetidin-1-yl)hexyl)amino)isoindoline-1,3-dione], the IC50 in the experiment on MV4;11 cells (setting [1]), with MV4;11 cells (setting [2]), in the experiment on MOLM-13 cells (setting [3]) and in the experiment on MOLM-13 cells (setting [4]) was above 1 µM in each case.

Regarding `CN(c1ccccc1)C1CN(C(=O)CCCCCNc2ccc3c(c2)C(=O)N(C2CCC(=O)NC2=O)C3=O)C1` (stereo not shown) [GS-337, 2-(2,6-Dioxopiperidin-3-yl)-5-((6-(3-(methyl(phenyl)amino)azetidin-1-yl)-6-oxohexyl)amino)isoindoline-1,3-dione], the IC50 is above 1 µM with MV4;11 cells (setting [1]), above 1 µM with MV4;11 cells (setting [2]), above 1 µM in the experiment on MOLM-13 cells (setting [3]) and 0.1 to 1 µM with MOLM-13 cells (setting [4]).

As to `O=C1CCC(N2C(=O)c3ccc(NCCCCCCn4cc(-c5cnc6ccccc6n5)cn4)cc3C2=O)C(=O)N1` (stereo not shown) [GS-339, 2-(2,6-Dioxopiperidin-3-yl)-5-((6-(4-(quinoxalin-2-yl)-1H-pyrazol-1-yl)hexyl)amino)isoindoline-1,3-dione], the IC50 is 0.1 to 1 µM in the experiment on MV4;11 cells (setting [1]), below 0.01 µM in the experiment on MV4;11 cells (setting [2]), above 1 µM in the experiment on MOLM-13 cells (setting [3]) and 0.01 to 0.1 µM in the experiment with MOLM-13 cells (setting [4]).

`O=C1CCC(N2C(=O)c3ccc(CNC(=O)C(F)(F)c4cccc(-n5cc(-c6cnc7ccccc7n6)cn5)c4)cc3C2=O)C(=O)N1` (stereo not shown) [GS-340, N-((2-(2,6-Dioxopiperidin-3-yl)-1,3-dioxoisoindolin-5-yl)methyl)-2,2-difluoro-2-(3-(4-(quinoxalin-2-yl)-1H-pyrazol-1-yl)phenyl)acetamide]: the IC50 with MV4;11 cells (setting [1]) was 0.1 to 1 µM; with MV4;11 cells (setting [2]), above 1 µM; in the experiment with MOLM-13 cells (setting [3]) it was above 1 µM; in the experiment on MOLM-13 cells (setting [4]), above 1 µM.

Consider `COc1ccnc(-c2cnn([C@H]3C[C@H](CCCNc4ccc5c(c4)C(=O)N(C4CCC(=O)NC4=O)C5=O)C3)c2)c1` (stereo partly drawn) [GS-341, 2-(2,6-Dioxopiperidin-3-yl)-5-((3-(trans-3-(4-(4-methoxypyridin-2-yl)-1H-pyrazol-1-yl)cyclobutyl)propyl)amino)isoindoline-1,3-dione], for which the IC50 in the experiment on MV4;11 cells (setting [1]) was 0.01 to 0.1 µM; with MV4;11 cells (setting [2]), below 0.01 µM; with MOLM-13 cells (setting [3]), 0.1 to 1 µM; in the experiment on MOLM-13 cells (setting [4]), 0.01 to 0.1 µM.

Consider `O=C1CCC(N2C(=O)c3ccc(NC(=O)COCC(=O)N4CCC(n5cc(-c6cnc7ccccc7n6)cn5)CC4)cc3C2=O)C(=O)N1` (stereo not shown) [GS-342, N-(2-(2,6-Dioxopiperidin-3-yl)-1,3-dioxoisoindolin-5-yl)-2-(2-oxo-2-(4-(4-(quinoxalin-2-yl)-1H-pyrazol-1-yl)piperidin-1-yl)ethoxy)acetamide], for which the IC50 in the experiment on MV4;11 cells (setting [1]), with MV4;11 cells (setting [2]), with MOLM-13 cells (setting [3]) and in the experiment with MOLM-13 cells (setting [4]) was above 1 µM each time.

Turning to `O=C1CCC(N2C(=O)c3ccc(NCCCN4CCC(n5cc(-c6cnc7ccccc7n6)cn5)CC4)cc3C2=O)C(=O)N1` (stereo not shown) [GS-343], the IC50 with MV4;11 cells (setting [1]) is above 1 µM; with MV4;11 cells (setting [2]), above 1 µM; with MOLM-13 cells (setting [3]), 0.1 to 1 µM; with MOLM-13 cells (setting [4]), 0.01 to 0.1 µM.

`O=C1CCC(N2C(=O)c3ccc(NCCCN4CCC(N5CCN(c6ccccn6)CC5)C4)cc3C2=O)C(=O)N1` (stereo not shown) [GS-344, 2-(2,6-Dioxopiperidin-3-yl)-5-((3-(3-(4-(pyridin-2-yl)piperazin-1-yl)pyrrolidin-1-yl)propyl)amino)isoindoline-1,3-dione]: the IC50 in the experiment on MV4;11 cells (setting [1]), with MV4;11 cells (setting [2]), with MOLM-13 cells (setting [3]) and in the experiment with MOLM-13 cells (setting [4]) was above 1 µM in each case.

Turning to `O=C(CN1CC(N2CCN(c3ccccn3)CC2)C1)NCc1ccc2c(c1)C(=O)N(C1CCC(=O)NC1=O)C2=O` (stereo not shown) [GS-345, N-((2-(2,6-Dioxopiperidin-3-yl)-1,3-dioxoisoindolin-5-yl)methyl)-2-(3-(4-(pyridin-2-yl)piperazin-1-yl)azetidin-1-yl)acetamide], the IC50 with MV4;11 cells (setting [1]), with MV4;11 cells (setting [2]), in the experiment with MOLM-13 cells (setting [3]) and in the experiment on MOLM-13 cells (setting [4]) was above 1 µM each time.

As for `O=C(CN1CCCC(n2cc(-c3cnc4ccccc4n3)cn2)C1)NCc1ccc2c(c1)C(=O)N(C1CCC(=O)NC1=O)C2=O` (stereo not shown) [GS-346, N-((2-(2,6-Dioxopiperidin-3-yl)-1,3-dioxoisoindolin-5-yl)methyl)-2-(3-(4-(quinoxalin-2-yl)-1H-pyrazol-1-yl)piperidin-1-yl)acetamide], the IC50 in the experiment with MV4;11 cells (setting [1]), in the experiment on MV4;11 cells (setting [2]), in the experiment with MOLM-13 cells (setting [3]) and in the experiment on MOLM-13 cells (setting [4]) was above 1 µM each time.
